# Reference: patent US20190292246A1, “COMBINATION THERAPY OF A CELL BASED THERAPY AND A MICROGLIA IMHIBITOR” (JUNO THERAPEUTICS, INC., priority 2016, published 2019)
# Assay: Non-human primate combination therapy: PLX3397, CD20 CAR T cells and cyclophosphamide preconditioning
# Format: in vivo
# Settings: PLX3397 40 mg/kg twice daily from 30 days before to 21 days after cells; Rhesus macaques
# Description: Animal subjects of the non-human primate (NHP), Macaca mulatta, which in aspects closely recapitulates the human immune system are administered cell therapy (T cells expressing a CAR targeting CD20), following administration of an agent to ameliorate toxicity. Thirty days prior to the initiation of cell therapy, T cells are isolated from peripheral blood of Rhesus macaques (n=3) and engineered via transduction with a viral vector encoding a CD20 chimeric antigen receptor (CAR), which is a tumor-associated or tumor-specific antigen, and optionally a detectable marker, such as GFP. […]
# After preconditioning treatment, subjects receive a first dose of CAR-expressing cells by infusion that is less than or equal to about 1×10^7 cells/kg body weight at day 0. […] Optionally, at seven days after the administration of the of cells, the CAR-expressing cells are detected by flow cytometry and quantitative polymerase chain reaction (qPCR) to measure in vivo proliferation and persistence of the administered cells and B cell aplasia. […] Recipient animals are monitored for clinical signs and symptoms of one or more toxic outcomes or toxicities such as CRS and neurotoxicity, and data are collected longitudinally to determine CAR T cell expansion and persistence, B cell aplasia, as well as clinical labs of CRS and cytokine levels. […]
smiles,measurement,value
"FC(F)(F)c1ccc(CNc2ccc(Cc3c[nH]c4ncc(Cl)cc34)cn2)cn1 [PLX3397, 5-((5-chloro-1H-pyrrolo[2,3-b]pyridin-3-yl)methyl)-N-((6-(trifluoromethyl)pyridin-3-yl)methyl)pyridin-2-amine]","symptoms of toxicity (CRS, neurotoxicity) after CAR T cell therapy",reduced or prevented
